Test results as given in patent publication US20240285571A1, “METHODS OF TREATING BONE INFECTIONS” (MICROBION CORPORATION, priority 2020, published 2024).
Values after ≈ are worked out from the molar mass of the structure shown. Where two headings read alike, the source gives them in different places.

What was measured:
Assay type in all cases: cell-based
Acinetobacter baumannii = assay: Broth microdilution MIC (Example 6); settings: Acinetobacter baumannii
Summary of the method: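 CLSI broth microdilution in cation-adjusted Mueller Hinton broth, test agents 0.06-64 μg/mL from DMSO stocks, inoculum approx. 5×10^5 CFU/mL. Incubation 35° C for 16–20 hr; MIC taken as lowest concentration inhibiting visible growth.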

Escherichia coli = assay: Broth microdilution MIC (Example 6); settings: Escherichia coli, read-out: MIC
Method: (§1) Test Compounds: The test agents BisEDT (MB-1-B3; Lot No. ED268-1-11-01), MB-2B, and MB-6 were stored at room temperature, in the dark, until assayed.
(§2) For testing daptomycin, calcium was supplemented with […] Ca^2+, resulting in a final concentration of […] Ca^2+ (2, 3).
(§3) MIC Assay Procedure: MIC values were determined using a broth microdilution procedure described by CLSI (2, 3).
(§4) The Biomek 2000 was then used to make 2-fold serial dilutions in the mother plates from column 1 through column 11. The wells of column 12 contained no drug and served as the organism growth control wells for the assay.
(§5) The test panels were prepared on the Biomek FX instrument which transferred 2 μL of drug solution from each well of a mother plate to the corresponding well of each daughter plate in a single step.
(§6) A standardized inoculum of each test organism was prepared per CLSI methods to equal a 0.5 McFarland standard, followed by a dilution of 1:20. The plates were then inoculated with 10 μL of the diluted inoculum using the Biomek 2000 from low to high drug concentration resulting in a final concentration of approximately 5×10^5 CFU/mL.
(§7) Plates were stacked 3-4 high, covered with a lid on the top plate, placed into plastic bags, and incubated at 35° C. for 16 to 20 hr (vancomycin was read for S. aureus after 24 hr incubation time). The MIC was recorded as the lowest concentration of drug that inhibited visible growth of the organism.

Pseudomonas aeruginosa = assay: Broth microdilution MIC (Example 6); settings: Pseudomonas aeruginosa, read-out: MIC
Method: as §1, §2, §3, §4, §5, §6, §7

Klebsiella pneumoniae = assay: Broth microdilution MIC (Example 6); settings: Klebsiella pneumoniae, read-out: MIC
Method: as §1, §2, §3, §4, §5, §6, §7

[1] = test system: relevant ATCC QC organisms; assay: Broth microdilution MIC, QC (Example 6)
Method: Test Compounds: The test agents BisEDT (MB-1-B3; Lot No. ED268-1-11-01), MB-2B, and MB-6 were stored at room temperature, in the dark, until assayed. The solvent and diluent for the test agents was DMSO (Sigma; St. Louis, MO; Lot No. SHBB9319V) and the prepared stock concentration was 6,464 μg/mL (101× the final test concentration).
Test compounds were evaluated at a concentration range of 0.06-64 μg/mL. For Gram-negative test isolates, amikacin and ceftazidime (alone and with clavulanate at a fixed concentration of 4 μg/mL) were evaluated over a concentration range of 0.06-64 μg/mL; meropenem and levofloxacin were evaluated over a concentration range of 0.008-8 μg/mL. For the testing of S. aureus, clindamycin, daptomycin, levofloxacin and vancomycin were evaluated at a concentration range of 0.008-8 μg/mL; linezolid was tested from 0.03-32 μg/mL.
Organisms: The test organisms as shown in Tables 11-15 consisted of clinical isolates from the Micromyx (MMX) repository and reference strains from the American Type Culture Collection (ATCC; Manassas, VA), National Collection of Type Cultures (NCTC; Public Health England, Salisbury, UK), the Network on Antimicrobial Resistance in Staphylococcus aureus (NARSA; BEI Resources, Manassas, VA), and the Centers for Disease Control and Prevention (CDC; Atlanta, GA). The test organisms were maintained frozen at −80° C. Prior to testing, the isolates were cultured on Tryptic Soy Agar with 5% sheep blood (BAP; Becton Dickson [BD]/BBL; Sparks, MD; Lot Nos. 9080650 and 9108563) at 35° C. Relevant ATCC quality control (QC) organisms (Table 16) were included during testing in accordance with CLSI guidelines (3). Further details on the genetic characterization of the isolates where available can be found in Table 17.
Media: Cation-adjusted Mueller Hinton broth (CAMHB; BD; Lot No. 8190586) was used as the medium for testing (2, 3). For testing daptomycin, calcium was supplemented with […] Ca^2+, resulting in a final concentration of […] Ca^2+ (2, 3).
MIC Assay Procedure: MIC values were determined using a broth microdilution procedure described by CLSI (2, 3). Automated liquid handlers (Multidrop 384, Labsystems, Helsinki, Finland; Biomek 2000 and Biomek F X, Beckman Coulter, Fullerton CA) were used to conduct serial dilutions and liquid transfers.
To prepare the drug mother plates, which would provide the serial drug dilutions for the replicate daughter plates, the wells of columns 2 through 12 of standard 96-well microdilution plates (Costar 3795) were filled with 150 μl of the appropriate diluent for each row of drug. The test articles and comparator compounds (300 μl at 101× the highest concentration to be tested) were dispensed into the appropriate wells in column 1. The Biomek 2000 was then used to make 2-fold serial dilutions in the mother plates from column 1 through column 11. The wells of column 12 contained no drug and served as the organism growth control wells for the assay.
The daughter plates were loaded with 190 μL per well of RPMI using the Multidrop 384. The test panels were prepared on the Biomek FX instrument which transferred 2 μL of drug solution from each well of a mother plate to the corresponding well of each daughter plate in a single step.
as §6, §7

[2] = ATCC35218, E. coli ATCC 35218, ESBL
[3] = P. aeruginosa isolate CDC 241, β-lactamase type IMP/OXA
[4] = K. pneumoniae CDC 135, ESBL/VIM

For `NCC[C@H](O)C(=O)N[C@@H]1C[C@H](N)[C@@H](O[C@H]2O[C@H](CN)[C@@H](O)[C@H](O)[C@H]2O)[C@H](O)[C@H]1O[C@H]1O[C@H](CO)[C@@H](O)[C@H](N)[C@H]1O` [Amikacin], the MIC (Acinetobacter baumannii; A. baumannii isolate CDC 273, β-lactamase type ESBL/OXA, read-out: MIC) was > 64 mg/L, the MIC (Acinetobacter baumannii; A. baumannii isolate CDC 274, β-lactamase type ESBL/OXA, read-out: MIC) was 16 mg/L and the MIC (Acinetobacter baumannii; A. baumannii isolate CDC 275, β-lactamase type ESBL/OXA, read-out: MIC) was > 64 mg/L. The MIC (Acinetobacter baumannii; A. baumannii isolate CDC 277, β-lactamase type ESBL/OXA, read-out: MIC) was 16 mg/L, the MIC (Acinetobacter baumannii; A. baumannii isolate CDC 284, β-lactamase type ESBL/OXA, read-out: MIC) was 32 mg/L and the MIC (Acinetobacter baumannii; A. baumannii isolate CDC 307, β-lactamase type OXA, read-out: MIC) was > 64 mg/L. For the same molecule, the MIC (Acinetobacter baumannii; A. baumannii isolate CDC 308, β-lactamase type ESBL/OXA, read-out: MIC) was > 64 mg/L, the MIC (Acinetobacter baumannii; A. baumannii isolate CDC 311, β-lactamase type OXA, read-out: MIC) was > 64 mg/L and the MIC (Acinetobacter baumannii; A. baumannii isolate CDC 312, β-lactamase type OXA, read-out: MIC) was 1 mg/L. For the same molecule, the MIC (Acinetobacter baumannii; A. baumannii isolate CDC 313, β-lactamase type ESBL/OXA, read-out: MIC) was 4 mg/L, the MIC (Acinetobacter baumannii; NCTC13304, A. baumannii isolate NCTC 13304, β-lactamase type OXA, read-out: MIC) was 0.5 mg/L and the MIC (Escherichia coli; [2]) was 1 mg/L (≈ 1.71 µM). The MIC (Escherichia coli; ATCCBAA2471, E. coli ATCC BAA-2471, NDM) was 64 mg/L (≈ 109 µM), the MIC (Escherichia coli; E. coli CDC 114, ESBL/KPC) was 1 mg/L (≈ 1.71 µM) and the MIC (Escherichia coli; E. coli CDC 118, ESBL/NDM) was > 64 mg/L. The MIC (Escherichia coli; E. coli CDC 435, NDM) was > 64 mg/L, the MIC (Escherichia coli; E. coli CDC 451, KPC) was 4 mg/L (≈ 6.83 µM) and the MIC (Escherichia coli; E. coli CDC 503, ESBL/NDM) was > 64 mg/L. The MIC (Escherichia coli; E. coli MMX 5745, KPC) was 0.5 mg/L (≈ 0.854 µM), the MIC (Escherichia coli; E. coli MMX 5755, ESBL) was 16 mg/L (≈ 27.3 µM) and the MIC (Escherichia coli; E. coli MMX 5756, ESBL) was 64 mg/L (≈ 109 µM). For the same molecule, the MIC (Escherichia coli; E. coli MMX 5758, ESBL) was 1 mg/L (≈ 1.71 µM), the MIC (Pseudomonas aeruginosa; P. aeruginosa isolate CDC 230, β-lactamase type VIM/OXA) was > 64 mg/L and the MIC (Pseudomonas aeruginosa; P. aeruginosa isolate CDC 231, β-lactamase type KPC/OXA) was 8 mg/L (≈ 13.7 µM). For the same molecule, the MIC (Pseudomonas aeruginosa; [3]) was 32 mg/L (≈ 54.6 µM), the MIC (Pseudomonas aeruginosa; P. aeruginosa isolate CDC 246, β-lactamase type NDM/OXA) was > 64 mg/L and the MIC (Pseudomonas aeruginosa; P. aeruginosa isolate CDC 250, β-lactamase type NDM/OXA) was > 64 mg/L. For the same molecule, the MIC (Pseudomonas aeruginosa; P. aeruginosa isolate CDC 356, β-lactamase type KPC) was 2 mg/L (≈ 3.42 µM), the MIC (Pseudomonas aeruginosa; P. aeruginosa isolate CDC 439, β-lactamase type IMP) was > 64 mg/L and the MIC (Pseudomonas aeruginosa; P. aeruginosa isolate CDC 444, β-lactamase type VIM) was > 64 mg/L. The MIC (Pseudomonas aeruginosa; P. aeruginosa isolate CDC 457, β-lactamase type VIM) was 2 mg/L (≈ 3.42 µM), the MIC (Pseudomonas aeruginosa; P. aeruginosa isolate CDC 516, β-lactamase type KPC/AmpC) was 2 mg/L (≈ 3.42 µM) and the MIC (Klebsiella pneumoniae; ATCCBAA1705, K. pneumoniae ATCC BAA-1705, ESBL/KPC) was 16 mg/L (≈ 27.3 µM). For the same molecule, the MIC (Klebsiella pneumoniae; K. pneumoniae CDC 112, KPC) was 16 mg/L (≈ 27.3 µM), the MIC (Klebsiella pneumoniae; K. pneumoniae CDC 113, ESBL/KPC) was 16 mg/L (≈ 27.3 µM) and the MIC (Klebsiella pneumoniae; K. pneumoniae CDC 115, ESBL/KPC) was 0.5 mg/L (≈ 0.854 µM). It also gave an MIC (Klebsiella pneumoniae; K. pneumoniae CDC 120, ESBL/KPC) of 16 mg/L (≈ 27.3 µM), an MIC (Klebsiella pneumoniae; K. pneumoniae CDC 126, ESBL/KPC) of 2 mg/L (≈ 3.42 µM) and an MIC (Klebsiella pneumoniae; K. pneumoniae CDC 129, ESBL/KPC) of 32 mg/L (≈ 54.6 µM). For the same molecule, the MIC (Klebsiella pneumoniae; [4]) was 16 mg/L (≈ 27.3 µM), the MIC (Klebsiella pneumoniae; K. pneumoniae CDC 138, ESBL/NDM) was > 64 mg/L and the MIC (Klebsiella pneumoniae; K. pneumoniae CDC 158, ESBL/NDM/OXA) was 2 mg/L (≈ 3.42 µM). For the same molecule, the MIC (Klebsiella pneumoniae; K. pneumoniae MMX 9029, ESBL) was 0.5 mg/L (≈ 0.854 µM), the MIC ([1]; Escherichia coli, ATCC25922, E. coli ATCC 25922, read-out: MIC) was 1 mg/L and the MIC ([1]; Escherichia coli, ATCC35218, E. coli ATCC 35218, read-out: MIC) was 1 mg/L. It also gave an MIC ([1]; Klebsiella pneumoniae, ATCCBAA1705, K. pneumoniae ATCC BAA-1705, read-out: MIC) of 16 mg/L and an MIC ([1]; Pseudomonas aeruginosa, ATCC27853, P. aeruginosa ATCC 27853, read-out: MIC) of 2 mg/L.
`CCC[C@@H]1C[C@@H](C(=O)N[C@@H]([C@H]2O[C@H](SC)[C@H](O)[C@@H](O)[C@H]2O)[C@H](C)Cl)N(C)C1` [CLI] gave an MIC ([1]; S. aureus ATCC 29213) of 0.25 mg/L.
`CC(S)C(C)S.[Bi]` (centres unmarked) [MB-6, bismuth-2,3-butanedithiol] was tested, and the MIC (Acinetobacter baumannii; A. baumannii isolate CDC 273, β-lactamase type ESBL/OXA) was 0.5 mg/L, the MIC (Acinetobacter baumannii; A. baumannii isolate CDC 274, β-lactamase type ESBL/OXA) was 0.5 mg/L and the MIC (Acinetobacter baumannii; A. baumannii isolate CDC 275, β-lactamase type ESBL/OXA) was 0.5 mg/L. For the same molecule, the MIC (Acinetobacter baumannii; A. baumannii isolate CDC 277, β-lactamase type ESBL/OXA) was 1 mg/L, the MIC (Acinetobacter baumannii; A. baumannii isolate CDC 284, β-lactamase type ESBL/OXA) was 1 mg/L and the MIC (Acinetobacter baumannii; A. baumannii isolate CDC 307, β-lactamase type OXA) was 0.5 mg/L. It also gave an MIC (Acinetobacter baumannii; A. baumannii isolate CDC 308, β-lactamase type ESBL/OXA) of 0.5 mg/L, an MIC (Acinetobacter baumannii; A. baumannii isolate CDC 311, β-lactamase type OXA) of 0.5 mg/L and an MIC (Acinetobacter baumannii; A. baumannii isolate CDC 312, β-lactamase type OXA) of 0.5 mg/L. It also gave an MIC (Acinetobacter baumannii; A. baumannii isolate CDC 313, β-lactamase type ESBL/OXA) of 0.5 mg/L, an MIC (Acinetobacter baumannii; NCTC13304, A. baumannii isolate NCTC 13304, β-lactamase type OXA) of 0.5 mg/L and an MIC (Escherichia coli; [2]) of 1 mg/L. The MIC (Escherichia coli; E. coli MMX 5755, ESBL) was 2 mg/L, the MIC (Escherichia coli; E. coli MMX 5756, ESBL) was 1 mg/L and the MIC (Pseudomonas aeruginosa; [3]) was 8 mg/L. For the same molecule, the MIC (Klebsiella pneumoniae; [4]) was 4 mg/L and the MIC (Klebsiella pneumoniae; K. pneumoniae MMX 9029, ESBL) was 2 mg/L.
